The values below come from patent publication US4087418A, “Hexapeptides and methods for their production” (Parke, Davis & Company, priority 1976, dated 1978).

The test system of this test is LRF (luteinizing hormone release factor) induced luteinizing hormone (LH) release. Description: In vitro LRF antagonist test in rat anterior pituitary cell cultures. Format: cell-based. The note with it: LRF alone, Molar Conc. 2.5×10^-10 (stimulation control). An excerpt: Hexapeptides of this invention were screened for LRF antagonist activity in vitro using rat anterior pituitary cell cultures as described by Vale et. al. [Endocrinology, 91, 562 (1972)]. The inhibition of LRF (luteinizing hormone release factor) induced luteinizing hormone (LH) release into the culture medium is the endpoint in this in vitro bioassay.

As to “LRF Control: luteinizing hormone releasing factor, also referred to as luteinizing hormone releasing hormone, LH-RH; stimulates secretion of luteinizing hormone (QHWSYGLRPG; Gonadoliberin-1; UniProt P01148 24-33, looked up)”, the “LH Value” is 38.98 ng/mL.
